Test results: patent US20260209263A1, “UNNATURAL SUGAR, AND SYNTHESIS METHOD THEREFOR AND USE THEREOF” (HEFEI LINXCELL BIOTECHNOLOGIES CO., LTD, priority 2022, published 2026)

Assays:
[1] = test system: HeLa cells; assay: Metabolic glycan labeling in living HeLa cells, Cy5 in-gel fluorescence; type: cell-based; details: for labeling efficiency compared with 1,6-Pr2GalNAz or 1,6-Pr2ManNAz: 200 μM; for labeling efficiency compared with GalNAz or ManNAz: 200 μM of 1,6-bis-acylated sugar vs 2 mM of sugar without protecting groups
Protocol: In order to verify the metabolic labeling effect of the above-mentioned 1,6-bis-acylated unnatural sugars in living cells, HeLa cells were metabolically labeled with the above-mentioned different compounds. The specific steps are as follows:
200 μM of 1,6-bis-acylated unnatural sugar and 2 mM of sugar without protecting groups were added to a culture medium of HeLa cells for culture, and then bioorthogonal reaction was carried out with Cy5 fluorescently labeled substances, and in-gel fluorescence detection was performed on the differently treated HeLa cells. The detection results are shown in FIGS. 2A-2C (CBB in FIGS. 3A-3D represents Coomassie Brilliant Blue staining to show the loading amount control).

[2] = test system: B6D2F1/J mice; assay: Metabolic labeling in vivo in mice, in-gel fluorescence of organ homogenates; details: intraperitoneal, 500 mg/kg every day for 3 or 7 consecutive days; heart, lung, spleen
Protocol: In the in vivo mouse experiment, B6D2F1/J mice were intraperitoneally injected with 1,6-Pr2GalNAz or 1,6-Pr2ManNAz (both at a concentration of 500 mg/kg) every day for 3 or 7 consecutive days. The mice were euthanized on the 4th or 8th day, and different organs were selected for homogenization. The azide-modified glycoproteins were click-labeled and separated by SDS-PAGE.

[3] = test system: MCF-7 (MCF7-T2A-GFP) cells; assay: Metabolic glycan labeling in MCF-7 cells expressing GFP; type: cell-based
From the text: (§1) The above data well illustrate that 1,6-bis-acylated azidosugars can be metabolically labeled at much lower concentrations than unprotected azidosugars.

[4] = test system: MCF7-AGX2F383G-T2A-GFP cells; assay: Metabolic glycan labeling in MCF-7 cells overexpressing mutant enzyme AGX2F383G; type: cell-based
From the text: as §1

SMILES	labeling efficiency compared with 1,6-Pr2GalNAz or 1,6-Pr2ManNAz [1]	labeling efficiency compared with GalNAz or ManNAz [1]	in vivo metabolic labeling of glycoproteins from organs [2]	other results
CC(=O)OCC1OC(OC(C)=O)C(NC(=O)CN=[N+]=[N-])C(O)C1O (centres unmarked) [1,6-Ac2GalNAz]	much lower	–	–	–
CCCC(=O)OCC1OC(OC(=O)CCC)C(NC(=O)CN=[N+]=[N-])C(O)C1O (centres unmarked) [1,6-Bu2GalNAz]	comparable	–	–	–
CCC(=O)OC[C@H]1OC(OC(=O)CC)[C@H](NC(=O)CN=[N+]=[N-])[C@@H](O)[C@H]1O (some centres unmarked) [1,6-Pr2GalNAz]	–	close to or slightly stronger than 2 mM of sugar without protecting groups	glycoproteins from the heart, lung, and spleen could be well labeled	–
CCC(=O)OCC1OC(OC(=O)CC)C(NC(=O)CN=[N+]=[N-])C(O)C1O (centres unmarked) [1,6-Pr2ManNAz]	–	close to or slightly stronger than 2 mM of sugar without protecting groups	glycoproteins from the heart, lung, and spleen could be well labeled	–
[N-]=[N+]=NCC(=O)N[C@H]1C(O)O[C@H](CO)[C@@H](O)[C@@H]1O (some centres unmarked) [GlcNAz]	–	–	–	metabolic labeling [3]: neither GlcNAz nor 1,6-bis-acylated GlcNAz treatment resulted in obvious labeling; metabolic labeling [4]: produced obvious labeling
